Test results from patent publication US20160264684A1, “GLYCAN-INTERACTING COMPOUNDS AND METHODS OF USE” (SIAMAB THERAPEUTICS, INC., priority 2013, published 2016).

Legend:
[1] = system: E3-STn cells; assay: E3-STn transfected murine breast tumor allograft model, tumor volume; type: in vivo, mouse; conditions: 7G9-1A8 25 mg/kg ip twice weekly 3 weeks, Paclitaxel daily 5 days
Experimental: 3 test articles were evaluated during the study.
Standard deviation values are listed in parenthesis.

[2] = Glycan array STn specificity and anti-STn antibody group; type: binding; design: key to Group: Group 1 antibodies according to the invention are antibodies capable of binding AcSTn and GcSTn; Antibodies were assigned to Group 2 based on their ability to bind STn as well as some related structures that include an O-linkage to serine or threonine; Group 3 antibodies are antibodies capable of binding STn, but may also bind a broader set of related structures; Group 4 antibodies are capable of binding to both AcSTn and GcSTn as well as the un-sialylated Tn antigen; conditions: assigned from flow cytometry and glycan array analysis
Experimental: Optimized glycan arrays comprise 71 chemically synthesized and well-defined glycans, most of which comprise Neu5Ac and Neu5Gc glycan pairs.
300 ml of epoxy blocking buffer is prepared by combining 15 ml of 2 M Tris buffer (pH 8) with 0.9 ml of 16.6 M ethanolamine and 284.1 ml of distilled water. The solution is filtered using a […] nitrocellulose membrane. The epoxy buffer solution as well as 1 L of distilled water are pre-warmed to 50° C. Glass slides are arranged in a slide holder and quickly submerged in a staining tub with the warmed epoxy blocking buffer. Slides are incubated in the epoxy blocking buffer for 1 hour at 50° C. with periodic shaking to deactivate epoxy binding sites. Next, slides are rinsed and blocked with PBS with 1% OVA at 25° C. for one hour. Serum samples are diluted 1:1000 in PBS with 1% OVA and added to the glycan array for one hour at 25° C. After extensive washing, binding of polyclonal serum antibodies are detected by incubating glycan microarray slides with Cy3-conjugated anti-mouse IgG (Jackson Immunoresearch, West Grove, Pa.) for one hour. Slides are then washed extensively, dried and scanned with a Genepix 4000B scanner (Laser at 100%; gain at 350; 10 μm pixels). Raw data from scanned images are extracted using the Genepix software and analysis of raw data is carried out.
Based on characterization data, anti-STn antibodies developed from Group 6 and Group 8 mice were categorized by anti-STn group number. In some cases, antibodies were assigned to Group 1. Group 1 antibodies according to the invention are antibodies capable of binding AcSTn and GcSTn. Such antibodies may have the ability to associate with a wider range of STn structures. The large oval in FIG. 1A indicates the portion of STn recognized by Group 1 antibodies. […] Also listed in the Table is the antibody Isotype for each antibody as determined by the IsoStrip mouse monoclonal antibody isotyping kit (Roche Diagnostics GmbH, Manheim, Germany).

[3] = system: STn on bovine submaxillary mucin (BSM); assay: Anti-STn BSM ELISA; type: binding; conditions: BSM ELISA, sodium periodate treated wells
Experimental: (§1) Anti-STn serum titer is determined using a murine anti-STn bovine submaxillary mucin (BSM) ELISA together with serum profiles observed by glycan microarray. 96-well plates are coated with 1 μg/well of BSM and incubated overnight at 4° C. O-acetylation of BSM antigen is removed by treating wells with 0.1 M sodium hydroxide. Specific binding to STn is determined by treatment of wells with sodium periodate. Periodate treatment destroys the C6 side chain of sialic acid; therefore antibodies raised against STn should not bind to periodate-treated wells. Wells are blocked with PBS 1% ovalbumin (OVA). Serum samples to be assayed are serially diluted in PBS 1% OVA. A commercially available mouse anti-STn monoclonal antibody, 3F1 (SBH Sciences, Natick, Mass.) is used as a positive control. This antibody is also serially diluted in PBS with 1% OVA. A pool of serum from naïve wild type mice is used for the preparation of negative control samples. Detection of anti-STn antibodies present in serum is determined using an HRP-conjugated polyclonal goat anti-mouse IgG antibody (Jackson Immunoresearch, West Grove, Pa.). The reaction is stopped by addition of sulfuric acid (1.6 M). Optical densities are measured at 490 nm using a Spectramax microplate reader (Molecular Devices, Sunnyvale, Calif.). The serum titer is obtained by comparison of OD values with a cutoff value calculated as two standard deviations above the mean of optical density values of the negative control. […]
Binding affinities of 18D2 and 18C7 to STn were compared to commercially available anti-STn antibodies using the BSM ELISA assay described in Example 2. […] Antibody binding was determined using HRP-conjugated polyclonal goat anti-mouse IgG antibody (Jackson Immunoresearch Laboratories, West Grove, Pa.). […] Optical densities were measured at 490 nm using a Spectramax microplate reader. […] The half maximal effective concentration (EC50) for each antibody was calculated using a non-linear regression analysis carried out on periodate subtracted data.

[4] = AcSTn-PAA ELISA; type: binding; conditions: 200 ng/well PAA antigen; 1:5 dilutions from 1 μM
Experimental: as §1, with “A commercially available mouse anti-STn monoclonal antibody, 3F1 (SBH Sciences, Natick, Mass.) is used as a positive control. This antibody is also serially diluted in PBS with 1% OVA. A pool of serum from naïve wild type mice is used for the preparation of negative control samples.” left out, “The reaction is stopped by addition of sulfuric acid (1.6 M).” left out
(§2) 18D2 and 18C7 antibodies were further characterized by ELISA comprising antigens other than BSM. […] Binding of anti-STn antibodies was detected using a goat anti-mouse IgG-HRP conjugated antibody (Jackson Immunoresearch Laboratories, West Grove, Pa.). […]

[5] = GcSTn-PAA ELISA; type: binding; conditions: 200 ng/well PAA antigen; 1:5 dilutions from 1 μM
Experimental: as §1, with “A commercially available mouse anti-STn monoclonal antibody, 3F1 (SBH Sciences, Natick, Mass.) is used as a positive control. This antibody is also serially diluted in PBS with 1% OVA. A pool of serum from naïve wild type mice is used for the preparation of negative control samples.” left out, “The reaction is stopped by addition of sulfuric acid (1.6 M).” left out
as §2

With CC(=O)O[C@H]1C(=O)[C@@]2(C)[C@H]([C@H](OC(=O)c3ccccc3)[C@]3(O)C[C@H](OC(=O)[C@H](O)[C@@H](NC(=O)c4ccccc4)c4ccccc4)C(C)=C1C3(C)C)[C@]1(OC(C)=O)CO[C@@H]1C[C@@H]2O [Paclitaxel, reference compound] the “Average Tumor Volume” value ([1]; day 1 of treatment) was 112.7 mm^3, the “Average Tumor Volume” value ([1]; day 4 of treatment) was 179.5 mm^3 and the “Average Tumor Volume” value ([1]; day 6 of treatment) was 191.4 mm^3. For the same molecule, the “Average Tumor Volume” value ([1]; day 8 of treatment) was 198.6 mm^3, the “Average Tumor Volume” value ([1]; day 11 of treatment) was 199.8 mm^3 and the “Average Tumor Volume” value ([1]; day 13 of treatment) was 227.0 mm^3. For the same molecule, the “Average Tumor Volume” value ([1]; day 15 of treatment) was 248.4 mm^3, the “Average Tumor Volume” value ([1]; day 18 of treatment) was 290.5 mm^3 and the “Average Tumor Volume” value ([1]; day 20 of treatment) was 328.2 mm^3. For the same molecule, the “Average Tumor Volume” value ([1]; day 22) was 331.8 mm^3, the “Average Tumor Volume” value ([1]; day 26) was 344.0 mm^3 and the “Average Tumor Volume” value ([1]; day 27) was 350.1 mm^3. The “Average Tumor Volume” value ([1]; day 29) was 352.3 mm^3, the “Average Tumor Volume” value ([1]; day 32) was 355.1 mm^3 and the “Average Tumor Volume” value ([1]; day 34) was 358.4 mm^3. For the same molecule, the “Average Tumor Volume” value ([1]; day 36) was 282.0 mm^3, the “Average Tumor Volume” value ([1]; day 39) was 267.2 mm^3 and the “Average Tumor Volume” value ([1]; day 41) was 276.4 mm^3.

B1: 18C7: anti-STn monoclonal antibody from mouse #4436; IgG2c κ; SEQ ID NO 4 and 5 (antibody, V domains shown)
VH: QVTLKESGPGILQPSQTLSLTCSFSGFSLSTFGMGVGWIRQPSGKGLEWLAHIWWDDDKYYNPALKSRLTISKDTSKNQVFLKIANVDTADTATYYCARIAYYYGSERDYWGQGTTLTVSS
VL: QIVLTQSPAIMSASPGEKVTMTCSASSSISYMHWYHQKPGTSPKRWIYDTSKLASGVPARFSGSGSGTSYSLTISSMEAEDAATYYCHQRSSYTFGGGTKLEIKR
For B1, the Group [2] was 1 and the “binding to periodate-treated wells” value [3] was “did not bind”.

B2: B72.3: commercial anti-STn antibody, TAG-72 clone B72.3 (Thermo Fisher Scientific) (antibody, chains of the INN, looked up, V domains shown)
VH: QVQLQQSDAELVKPGASVKISCKASGYTFTDHAIHWAKQKPEQGLEWIGYISPGNDDIKYNEKFKGKATLTADKSSSTAYMQLNSLTSEDSAVYFCKRSYYGHWGQGTTLTVSS
VL: DIQMTQSPASLSVSVGETVTITCRASENIYSNLAWYQQKQGKSPQLLVYAATNLADGVPSRFSGSGSGTQYSLKINSLQSEDFGSYYCQHFWGTPYTFGGGTRLEIK
With B2 the EC50 [4] was 71.3 nM and the EC50 [5] was 27.8 nM.
